Assay results from the kinase profiling compilation of Christmann-Franck et al. (2016).

Legend:
Assay in all cases: KINOMEscan competition binding
Settings in all cases: compound 10.0 µM
CSNK2A1 (human) = CSNK2A1 (human) (UniProt P68400)
PTK2B (human) = PTK2B (human) (UniProt Q14289)
DYRK1B (human) = DYRK1B (human) (UniProt Q9Y463)
DMPK (human) = DMPK (human) (UniProt Q09013)
AURKA (human) = AURKA (human) (UniProt O14965)
NEK6 (human) = NEK6 (human) (UniProt Q9HC98)
PRKG2 (human) = PRKG2 (human) (UniProt Q13237)
EPHA3 (human) = EPHA3 (human) (UniProt P29320)
MAP4K5 (human) = MAP4K5 (human) (UniProt Q9Y4K4)
STK11 (human) = STK11 (human) (UniProt Q15831)
PDGFRA (human) = PDGFRA (human) (UniProt P16234)
MAPK7 (human) = MAPK7 (human) (UniProt Q13164)
[1] = tested on: PIK3CA (human), P42336 [M1043I]
CDC42BPB (human) = CDC42BPB (human) (UniProt Q9Y5S2)
STK38 (human) = STK38 (human) (UniProt Q15208)
STK25 (human) = STK25 (human) (UniProt O00506)
CSNK1A1L (human) = CSNK1A1L (human) (UniProt Q8N752)
MLTK (human) = MLTK (human) (UniProt Q9NYL2)
IKBKE (human) = IKBKE (human) (UniProt Q14164)
PRKCE (human) = PRKCE (human) (UniProt Q02156)
MELK (human) = MELK (human) (UniProt Q14680)
STK36 (human) = STK36 (human) (UniProt Q9NRP7)
FES (human) = FES (human) (UniProt P07332)
CDK7 (human) = CDK7 (human) (UniProt P50613)
DCLK2 (human) = DCLK2 (human) (UniProt Q8N568)
TBK1 (human) = TBK1 (human) (UniProt Q9UHD2)
MAP4K2 (human) = MAP4K2 (human) (UniProt Q12851)
NTRK1 (human) = NTRK1 (human) (UniProt P04629)
RPS6KA6 KD2 (human) = RPS6KA6 KD2 (human) (UniProt Q9UK32)
STK17B (human) = STK17B (human) (UniProt O94768)
EPHB2 (human) = EPHB2 (human) (UniProt P29323)
PRKACA (human) = PRKACA (human) (UniProt P17612)
TNK1 (human) = TNK1 (human) (UniProt Q13470)
FLT4 (human) = FLT4 (human) (UniProt P35916)
LATS2 (human) = LATS2 (human) (UniProt Q9NRM7)
PRKD1 (human) = PRKD1 (human) (UniProt Q15139)
STK24 (human) = STK24 (human) (UniProt Q9Y6E0)
TEK (human) = TEK (human) (UniProt Q02763)
PIK3CG (human) = PIK3CG (human) (UniProt P48736)
ACVR1 (human) = ACVR1 (human) (UniProt Q04771)
MAP2K6 (human) = MAP2K6 (human) (UniProt P52564)
CDK15 (human) = CDK15 (human) (UniProt Q96Q40)

Sequence of STK38 (human) (Q15208 whole entry, looked up): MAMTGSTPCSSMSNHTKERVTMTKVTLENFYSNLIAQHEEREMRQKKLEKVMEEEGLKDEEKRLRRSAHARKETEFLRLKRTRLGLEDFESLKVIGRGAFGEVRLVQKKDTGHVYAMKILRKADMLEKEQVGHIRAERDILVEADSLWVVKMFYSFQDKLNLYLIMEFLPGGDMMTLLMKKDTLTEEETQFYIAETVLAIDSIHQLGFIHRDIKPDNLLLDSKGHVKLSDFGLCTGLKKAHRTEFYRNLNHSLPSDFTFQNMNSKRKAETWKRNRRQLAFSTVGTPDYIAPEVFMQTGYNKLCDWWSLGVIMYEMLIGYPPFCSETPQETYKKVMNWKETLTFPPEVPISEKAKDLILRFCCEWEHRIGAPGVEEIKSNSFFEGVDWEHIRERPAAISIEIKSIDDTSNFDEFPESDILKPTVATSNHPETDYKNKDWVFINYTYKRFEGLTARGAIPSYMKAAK
Sequence of DMPK (human) (Q09013 whole entry, looked up): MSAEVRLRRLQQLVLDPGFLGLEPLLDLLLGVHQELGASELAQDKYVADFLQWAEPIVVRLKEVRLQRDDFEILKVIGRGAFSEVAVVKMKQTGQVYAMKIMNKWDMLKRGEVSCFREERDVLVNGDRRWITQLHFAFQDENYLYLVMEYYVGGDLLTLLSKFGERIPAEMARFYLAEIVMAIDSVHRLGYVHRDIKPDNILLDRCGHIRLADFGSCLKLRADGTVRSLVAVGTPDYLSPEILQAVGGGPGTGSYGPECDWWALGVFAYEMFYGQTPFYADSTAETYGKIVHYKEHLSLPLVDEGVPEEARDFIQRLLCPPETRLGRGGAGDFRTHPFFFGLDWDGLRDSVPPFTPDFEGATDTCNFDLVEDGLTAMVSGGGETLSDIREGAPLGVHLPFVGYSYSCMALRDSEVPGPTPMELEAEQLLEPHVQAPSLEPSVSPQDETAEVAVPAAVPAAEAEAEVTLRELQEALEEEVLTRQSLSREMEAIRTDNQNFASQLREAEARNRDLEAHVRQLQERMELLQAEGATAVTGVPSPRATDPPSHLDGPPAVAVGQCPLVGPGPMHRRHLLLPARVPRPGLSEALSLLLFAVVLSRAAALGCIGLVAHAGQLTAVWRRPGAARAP
Sequence of DYRK1B (human) (Q9Y463 whole entry, looked up): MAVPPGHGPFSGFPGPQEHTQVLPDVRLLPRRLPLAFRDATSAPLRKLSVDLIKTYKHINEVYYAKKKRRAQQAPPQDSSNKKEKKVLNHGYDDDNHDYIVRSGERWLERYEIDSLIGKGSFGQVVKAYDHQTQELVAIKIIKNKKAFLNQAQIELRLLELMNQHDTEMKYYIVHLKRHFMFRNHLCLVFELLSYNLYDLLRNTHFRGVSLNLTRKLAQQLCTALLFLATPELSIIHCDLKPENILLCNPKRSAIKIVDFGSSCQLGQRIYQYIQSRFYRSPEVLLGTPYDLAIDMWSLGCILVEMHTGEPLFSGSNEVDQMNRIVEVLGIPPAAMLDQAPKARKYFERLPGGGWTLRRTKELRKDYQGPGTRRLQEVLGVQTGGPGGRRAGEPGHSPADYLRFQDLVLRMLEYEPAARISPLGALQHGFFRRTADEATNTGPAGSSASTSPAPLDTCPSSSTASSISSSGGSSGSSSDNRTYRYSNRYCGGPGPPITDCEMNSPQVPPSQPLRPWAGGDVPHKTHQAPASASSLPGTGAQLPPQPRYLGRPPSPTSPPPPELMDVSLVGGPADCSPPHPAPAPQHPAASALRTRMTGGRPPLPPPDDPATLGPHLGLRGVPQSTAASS
Sequence of LATS2 (human) (Q9NRM7 whole entry, looked up): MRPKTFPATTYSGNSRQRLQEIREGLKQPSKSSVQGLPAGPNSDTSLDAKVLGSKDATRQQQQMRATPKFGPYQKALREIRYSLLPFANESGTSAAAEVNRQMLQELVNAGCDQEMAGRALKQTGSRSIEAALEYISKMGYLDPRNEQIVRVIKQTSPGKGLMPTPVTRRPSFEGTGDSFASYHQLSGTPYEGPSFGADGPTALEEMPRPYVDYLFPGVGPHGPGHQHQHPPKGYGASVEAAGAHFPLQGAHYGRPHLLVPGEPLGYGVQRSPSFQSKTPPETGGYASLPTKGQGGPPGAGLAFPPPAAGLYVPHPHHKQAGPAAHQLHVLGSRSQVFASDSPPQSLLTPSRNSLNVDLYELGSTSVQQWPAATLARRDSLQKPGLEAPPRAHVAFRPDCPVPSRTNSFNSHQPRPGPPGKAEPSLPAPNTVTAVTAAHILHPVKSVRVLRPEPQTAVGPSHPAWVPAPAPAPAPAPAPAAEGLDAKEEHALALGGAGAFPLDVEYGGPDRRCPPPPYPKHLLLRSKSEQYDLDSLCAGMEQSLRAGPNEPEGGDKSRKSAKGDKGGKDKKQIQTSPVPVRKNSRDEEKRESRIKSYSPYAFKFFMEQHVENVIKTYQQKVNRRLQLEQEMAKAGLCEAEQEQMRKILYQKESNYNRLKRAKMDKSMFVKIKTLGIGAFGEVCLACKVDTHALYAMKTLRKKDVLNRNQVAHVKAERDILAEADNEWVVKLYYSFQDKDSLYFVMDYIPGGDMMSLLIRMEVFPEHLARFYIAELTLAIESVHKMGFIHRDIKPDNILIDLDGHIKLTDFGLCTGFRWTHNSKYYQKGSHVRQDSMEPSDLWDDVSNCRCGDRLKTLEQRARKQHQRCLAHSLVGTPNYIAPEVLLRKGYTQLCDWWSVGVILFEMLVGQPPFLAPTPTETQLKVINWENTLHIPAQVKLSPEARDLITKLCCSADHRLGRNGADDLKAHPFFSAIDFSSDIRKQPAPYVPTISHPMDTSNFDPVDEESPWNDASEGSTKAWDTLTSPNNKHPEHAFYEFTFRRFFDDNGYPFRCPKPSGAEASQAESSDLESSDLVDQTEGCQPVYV
Sequence of CDC42BPB (human) (Q9Y5S2 whole entry, looked up): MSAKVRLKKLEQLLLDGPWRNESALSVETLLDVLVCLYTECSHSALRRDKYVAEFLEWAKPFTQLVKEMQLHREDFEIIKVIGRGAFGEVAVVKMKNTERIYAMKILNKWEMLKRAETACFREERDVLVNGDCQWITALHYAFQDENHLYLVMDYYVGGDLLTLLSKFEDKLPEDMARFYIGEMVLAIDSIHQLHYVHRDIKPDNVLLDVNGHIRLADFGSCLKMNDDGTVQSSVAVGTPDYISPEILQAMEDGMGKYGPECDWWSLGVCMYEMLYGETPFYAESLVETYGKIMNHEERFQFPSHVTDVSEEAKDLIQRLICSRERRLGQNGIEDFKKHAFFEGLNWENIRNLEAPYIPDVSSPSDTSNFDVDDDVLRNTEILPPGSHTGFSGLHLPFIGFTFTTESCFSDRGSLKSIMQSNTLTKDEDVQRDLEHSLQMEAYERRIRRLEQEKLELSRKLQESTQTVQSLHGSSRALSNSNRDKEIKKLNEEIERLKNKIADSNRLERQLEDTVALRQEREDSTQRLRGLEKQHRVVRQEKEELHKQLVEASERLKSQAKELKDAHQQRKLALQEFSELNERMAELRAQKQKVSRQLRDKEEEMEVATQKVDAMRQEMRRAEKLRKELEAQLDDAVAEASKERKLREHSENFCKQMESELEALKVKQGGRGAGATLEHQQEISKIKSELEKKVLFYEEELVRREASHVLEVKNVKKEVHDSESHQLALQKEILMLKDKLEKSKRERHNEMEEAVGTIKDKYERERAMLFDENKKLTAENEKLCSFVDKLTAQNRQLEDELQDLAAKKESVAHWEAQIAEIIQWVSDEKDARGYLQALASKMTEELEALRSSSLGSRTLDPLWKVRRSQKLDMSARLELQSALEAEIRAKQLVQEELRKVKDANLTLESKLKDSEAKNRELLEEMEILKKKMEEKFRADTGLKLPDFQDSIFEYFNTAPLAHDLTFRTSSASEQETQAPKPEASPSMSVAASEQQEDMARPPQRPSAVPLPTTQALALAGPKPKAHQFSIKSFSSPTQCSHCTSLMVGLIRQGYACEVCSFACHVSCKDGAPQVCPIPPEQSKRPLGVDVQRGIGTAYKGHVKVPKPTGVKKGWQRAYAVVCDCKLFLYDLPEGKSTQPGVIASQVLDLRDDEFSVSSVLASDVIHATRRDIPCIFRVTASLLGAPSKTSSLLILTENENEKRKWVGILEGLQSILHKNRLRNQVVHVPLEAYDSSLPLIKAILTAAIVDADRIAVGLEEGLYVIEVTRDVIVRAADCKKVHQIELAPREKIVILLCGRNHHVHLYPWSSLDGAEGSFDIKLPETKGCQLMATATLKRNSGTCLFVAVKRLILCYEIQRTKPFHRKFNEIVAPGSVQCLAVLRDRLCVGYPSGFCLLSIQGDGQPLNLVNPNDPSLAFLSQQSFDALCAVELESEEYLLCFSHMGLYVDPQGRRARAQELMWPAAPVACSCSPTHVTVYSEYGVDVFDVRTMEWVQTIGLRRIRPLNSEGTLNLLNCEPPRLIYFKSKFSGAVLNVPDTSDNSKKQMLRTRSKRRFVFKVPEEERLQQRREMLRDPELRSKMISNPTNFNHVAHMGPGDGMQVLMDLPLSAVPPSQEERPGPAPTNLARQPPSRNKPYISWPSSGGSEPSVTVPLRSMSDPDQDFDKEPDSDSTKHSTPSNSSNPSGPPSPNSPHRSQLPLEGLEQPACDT
Sequence of AURKA (human) (O14965 whole entry, looked up): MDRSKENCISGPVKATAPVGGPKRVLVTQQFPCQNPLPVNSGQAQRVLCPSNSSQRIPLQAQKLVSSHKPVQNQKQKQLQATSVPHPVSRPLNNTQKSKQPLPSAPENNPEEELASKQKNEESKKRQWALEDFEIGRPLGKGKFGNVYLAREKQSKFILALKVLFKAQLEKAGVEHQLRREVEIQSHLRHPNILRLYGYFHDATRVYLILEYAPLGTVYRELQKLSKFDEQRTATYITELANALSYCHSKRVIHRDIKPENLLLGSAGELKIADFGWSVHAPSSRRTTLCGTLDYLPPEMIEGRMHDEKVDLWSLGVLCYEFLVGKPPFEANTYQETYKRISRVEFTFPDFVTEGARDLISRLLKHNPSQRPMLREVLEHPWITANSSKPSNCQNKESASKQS

## O=C1Nc2cc(Br)ccc2/C1=C1/Nc2ccccc2/C1=N\O
CSNK2A1 (human)
  kinase still bound, per cent of control: 6.2%
PTK2B (human)
  kinase still bound, per cent of control: 9.3%
DYRK1B (human)
  kinase still bound, per cent of control: 13%
DMPK (human)
  kinase still bound, per cent of control: 100%
AURKA (human)
  kinase still bound, per cent of control: 20%
NEK6 (human)
  kinase still bound, per cent of control: 85%
PRKG2 (human)
  kinase still bound, per cent of control: 24%
EPHA3 (human)
  kinase still bound, per cent of control: 1.7%
MAP4K5 (human)
  kinase still bound, per cent of control: 9.2%
STK11 (human)
  kinase still bound, per cent of control: 2.7%
PDGFRA (human)
  kinase still bound, per cent of control: 0%
MAPK7 (human)
  kinase still bound, per cent of control: 100%
[1]
  kinase still bound, per cent of control: 100%
CDC42BPB (human)
  kinase still bound, per cent of control: 90%
STK38 (human)
  kinase still bound, per cent of control: 86%
STK25 (human)
  kinase still bound, per cent of control: 18%
CSNK1A1L (human)
  kinase still bound, per cent of control: 36%
MLTK (human)
  kinase still bound, per cent of control: 26%
IKBKE (human)
  kinase still bound, per cent of control: 29%
PRKCE (human)
  kinase still bound, per cent of control: 90%
MELK (human)
  kinase still bound, per cent of control: 8.7%
STK36 (human)
  kinase still bound, per cent of control: 53%
FES (human)
  kinase still bound, per cent of control: 100%
CDK7 (human)
  kinase still bound, per cent of control: 12%
DCLK2 (human)
  kinase still bound, per cent of control: 100%
TBK1 (human)
  kinase still bound, per cent of control: 32%
MAP4K2 (human)
  kinase still bound, per cent of control: 8.5%
NTRK1 (human)
  kinase still bound, per cent of control: 19%
RPS6KA6 KD2 (human)
  kinase still bound, per cent of control: 83%
STK17B (human)
  kinase still bound, per cent of control: 0%
EPHB2 (human)
  kinase still bound, per cent of control: 77%
PRKACA (human)
  kinase still bound, per cent of control: 100%
TNK1 (human)
  kinase still bound, per cent of control: 16%
FLT4 (human)
  kinase still bound, per cent of control: 2.5%
LATS2 (human)
  kinase still bound, per cent of control: 60%
PRKD1 (human)
  kinase still bound, per cent of control: 100%
STK24 (human)
  kinase still bound, per cent of control: 12%
TEK (human)
  kinase still bound, per cent of control: 78%
PIK3CG (human)
  kinase still bound, per cent of control: 82%
ACVR1 (human)
  kinase still bound, per cent of control: 32%
MAP2K6 (human)
  kinase still bound, per cent of control: 47%
CDK15 (human)
  kinase still bound, per cent of control: 53%
